Measured values reported in PubChem BioAssay (NCI).
Values joined by “and” are separate entries in the source; they are usually repeats but may differ in a detail not shown here. Equal entries are not always repeated.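 96-well plates; 48 h exposure; 5 concentrations. Endpoints by linear interpolation between flanking doses. Not reached: highest tested concentration assigned. The concentration for 50% growth inhibition is given as GI50. TGI marks complete inhibition of growth.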

Columns and labels:
Assay in all cases: inhibition of tumour cell growth, NCI panel, 48 h
[1] = system: DU-145 prostate
[2] = system: MDA-MB-231 breast
[3] = system: BT-549 breast
[4] = system: PC-3 prostate
[5] = system: DMS 114 small cell lung
[6] = system: DMS 273 small cell lung
[7] = system: SNB-78 CNS
[8] = system: DLD-1 colon
[9] = system: LXFL 529 NSCLC
[10] = system: XF 498 CNS

Row | Compound | GI50 [1] [µM] | TGI [1] | GI50 [2] [µM] | TGI [2] | GI50 [3] [µM] | TGI [3] | GI50 [4] [µM] | TGI [4] | further results
1 | COC1/C=C/OC2(C)Oc3c(C)c(O)c4c(O)c(c(C=NOC(c5ccccc5)c5ccccc5)c(O)c4c3C2=O)NC(=O)/C(C)=C/C=C/C(C)C(O)C(C)C(O)C(C)C(OC(C)=O)C1C (stereo not drawn) | 2.05 | 6.87 µM | 1.35 | 3.49 µM | 1.62 | 5.47 µM | 1.34 | 4.15 µM | –
2 | COc1cc(OC)c(/C=C/C(=O)c2c(O)cc(OC)c(C3CCN(C)CC3)c2OC)c(OC)c1 | 1.75 | 3.25 µM | – | – | 1.43 | 2.73 µM | 1.5 | 2.86 µM | –
3 | COc1cccc(/C=C2\CCc3ccccc3C2=O)c1 | 6.07 | 18.7 µM | 22.8 | 87.6 µM | 20 | 47.6 µM | 16.3 | 65.1 µM | –
4 | O=C(c1ccccc1)c1c2n(c3c1cc(O)c1ccccc13)CCN2 | 13.2 | 27.1 µM | 2.13 | 4.51 µM | 13.5 | 30.6 µM | 2.69 | 13 µM | –
5 | C1C[S][Ge]2([S]CCS1)[S]CCSCC[S]2 | – | – | – | – | – | – | – | – | GI50 [5]: > 100 µM; TGI [5]: > 100 µM; GI50 [6]: > 100 µM; TGI [6]: > 100 µM; GI50 [7]: > 100 µM; TGI [7]: > 100 µM; GI50 [8]: > 100 µM; TGI [8]: > 100 µM; GI50 [9]: > 100 µM; TGI [9]: > 100 µM
6 | O=C1Nc2c(ccc(Cl)c2Cl)/C1=C\c1cc(C(F)(F)F)cc(C(F)(F)F)c1 | 5.57 | 13.5 µM | 3.74 | 10.8 µM | 6.02 | 12.5 µM | 1.1 | 4.51 µM | –
7 | CS(=O)(=O)c1ccc(-c2cnc(NCc3ccco3)n3cnnc23)cc1 | > 100 | > 100 µM | 41.4 | > 100 µM | > 100 | > 100 µM | 57.8 | > 100 µM | –
8 | C=CCCCC(O)c1ccc(C(O)c2cnc3ccccc3c2)o1 (stereo not drawn) | 40 | > 100 µM | 27 | 69.9 µM | 19.7 | 63.5 µM | 32.6 | > 100 µM | –
9 | CNC(=O)c1cc(Oc2ccc3nc(NC(=O)Nc4cc(C(F)(F)F)cc(C(F)(F)F)c4)sc3c2)ccn1 | 1.25 | 2.98 µM | 0.829 | 2.62 µM | 1.34 | 3.07 µM | 0.611 | 2.29 µM | –
10 | COC(=O)Cc1nn2c(nc1=O)sc1ccc3ccccc3c12 | – | – | – | – | – | – | – | – | TGI [8]: > 100 µM; TGI [9]: > 100 µM
11 | COc1ccc2c(c1)C(=O)c1c-2c(OCCN2CCCCC2)nc2ccc(OC)cc12 | 0.519 | 2.19 µM | 2.71 | 15.3 µM | 8.26 | 23.3 µM | 2.33 | 21.3 µM | –
12 | O=C1c2ccccc2-c2ccccc2C1(Cl)Cl | 1.47 | 2.78 µM | 1.36 | 3.63 µM | 1.72 | 3.14 µM | 1.08 | 3.31 µM | –
13 | O=C(O)c1c[nH]c2c(ccc3[nH]cc(C(=O)O)c(=O)c32)c1=O | – | > 100 µM | – | > 100 µM | – | > 100 µM | – | > 100 µM | –
14 | Cc1ccnc(NC(c2ccccc2)c2ccc3cccnc3c2O)c1 (stereo not drawn) | 4.9 | > 100 µM | 5.65 | 97.1 µM | – | – | 5.94 | > 100 µM | –
15 | CC(C)=Cc1cc(C(=O)NCCNC(=O)c2cc(C=C(C)C)nc(NC#N)n2)nc(NC#N)n1 | – | – | – | – | – | – | – | – | TGI [5]: > 100 µM; TGI [10]: > 100 µM; TGI [9]: > 100 µM
16 | Cc1cc(Cl)ccc1Nc1nc2c(s1)C(=O)c1ccccc1C2=O | – | 3.04 µM | – | 12.9 µM | – | 2.9 µM | – | 8.05 µM | TGI [5]: 4.85 µM; TGI [6]: 5.71 µM; TGI [7]: > 80.9 µM; TGI [8]: 12.5 µM; TGI [9]: 12.8 µM
17 | COc1ccc(/C=C/C(=O)c2ccccc2)cc1OC | – | 24.4 µM and 26.4 µM | – | 38.1 µM and 52.6 µM | – | 37.5 µM and 35.3 µM | 23.2 | 25.1 µM and 82 µM | –
18 | CN1c2ccccc2S(=O)(=O)n2c(COc3ccccc3)nnc21 | – | > 100 µM | – | > 100 µM | – | > 100 µM | – | > 100 µM | –
19 | C=C(C)[C@@H]1CC[C@]2(C(=O)N3CCN(C)CC3)CC[C@]3(C)[C@H](CC[C@@H]4[C@@]5(C)CC[C@H](O)C(C)(C)[C@@H]5CC[C@]43C)[C@@H]12 | 1.85 | 3.4 µM | 1.88 | 3.57 µM | 1.74 | 3.49 µM | 1.74 | 3.48 µM | –
20 | Clc1ccc(Nc2ncnc3c2sc2ncccc23)c(Cl)c1 | 0.0276 | > 100 µM | > 100 | > 100 µM | 0.0243 | > 100 µM | 2.72 | > 100 µM | –
21 | COC(=O)[C@H](C)[C@@H]1CC[C@](C)(CCC2=C(C)CCCC2(C)C)OO1 | – | > 25 µM | – | > 25 µM | – | > 25 µM | – | > 25 µM | –
22 | COc1ccc2c(c1)CC1N(C)CCC13CCCCC23 (stereo not drawn) | – | > 100 µM | – | > 100 µM | – | > 100 µM | – | > 100 µM | –
23 | Cc1cc(N(CCC#N)CCC#N)ccc1CC1N=C(c2ccccc2)OC1=O (stereo not drawn) | – | – | – | – | – | – | – | – | TGI [5]: > 100 µM; TGI [6]: > 100 µM; TGI [10]: > 100 µM; TGI [8]: > 100 µM; TGI [9]: > 100 µM
24 | Cc1nc2cc(Nc3nc(Nc4ccc(F)cc4)nc(N4CCCC4)n3)ccc2n1Cc1ccccc1 | 1.87 | 3.35 µM | 1.78 | 3.27 µM | 1.88 | 3.5 µM | 1.77 | 4.29 µM | –
25 | O=c1[nH]c(-c2ccc([N+](=O)[O-])cc2)nc2ccc(Cl)cc12 | – | – | – | – | – | – | – | – | TGI [6]: > 100 µM; TGI [7]: > 100 µM; TGI [9]: > 100 µM
26 | CCOC(=O)Cn1c(=O)[nH]c(=O)c2[nH]cnc21 | – | – | – | – | – | – | – | – | TGI [5]: > 100 µM; TGI [6]: > 100 µM; TGI [7]: > 100 µM; TGI [8]: > 100 µM; TGI [9]: > 100 µM
27 | O=C(O)C1C2CCC(O2)C1C(=O)NCc1cccnc1 (stereo not drawn) | – | > 100 µM | – | > 100 µM | – | > 100 µM | – | > 100 µM | –
28 | NNC(=S)NN/C=C(\C=Nc1ccccc1)[N+](=O)[O-] | – | – | – | – | – | – | – | – | TGI [5]: > 100 µM; TGI [10]: > 100 µM; TGI [8]: > 100 µM; TGI [9]: > 100 µM
29 | CCC1OC(=O)CC(O)C(C)C(OC2OC(C)CC(N(C)C)C2O)C(CC=O)CC(C)C(=O)/C=C/C2(C)OC2C1C (stereo not drawn) | – | 61.2 µM | – | 53.8 µM | – | 31.8 µM | – | > 100 µM | –
